Counter-ions that a name gives are not always drawn. Like-named read-outs stand apart in the source and are kept apart here.
Experiments:
MCF7 cells = experiment: Endogenous ceramide level in cells after treatment; type: cell-based, human; conditions: 24 hour treatment, 0-25 μM, FIG. 7
Excerpt: The administration of guanidino-sphingosines to mammalian cells at concentrations capable of inhibiting SK1 or SK2 were also found to increase the level of endogenous Cer in the cells.

[1] = molecular target: sphingosine kinase 1 (SK1) (Homo sapiens, UniProt Q9NYA1); experiment: In vitro inhibition of purified recombinant sphingosine kinase 1; type: biochemical; conditions: purified recombinant enzyme
Sequence of sphingosine kinase 1 (SK1) (Q9NYA1 whole entry, species assumed): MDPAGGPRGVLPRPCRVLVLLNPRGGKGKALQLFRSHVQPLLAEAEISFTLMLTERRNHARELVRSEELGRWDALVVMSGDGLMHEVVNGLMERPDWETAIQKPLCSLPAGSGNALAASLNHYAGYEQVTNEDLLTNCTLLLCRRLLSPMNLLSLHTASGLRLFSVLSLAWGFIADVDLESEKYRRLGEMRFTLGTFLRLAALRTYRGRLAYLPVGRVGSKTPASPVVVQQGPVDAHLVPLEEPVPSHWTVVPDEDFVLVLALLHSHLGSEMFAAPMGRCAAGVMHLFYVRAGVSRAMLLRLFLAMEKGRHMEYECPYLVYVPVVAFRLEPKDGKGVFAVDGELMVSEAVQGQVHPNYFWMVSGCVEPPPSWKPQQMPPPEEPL

[2] = molecular target: T1, sphingosine kinase 2 (SK2) (Homo sapiens, UniProt Q9NRA0); experiment: In vitro inhibition of purified recombinant sphingosine kinase 2; type: biochemical; conditions: purified recombinant enzyme
T1 sequence (Q9NRA0 1-654): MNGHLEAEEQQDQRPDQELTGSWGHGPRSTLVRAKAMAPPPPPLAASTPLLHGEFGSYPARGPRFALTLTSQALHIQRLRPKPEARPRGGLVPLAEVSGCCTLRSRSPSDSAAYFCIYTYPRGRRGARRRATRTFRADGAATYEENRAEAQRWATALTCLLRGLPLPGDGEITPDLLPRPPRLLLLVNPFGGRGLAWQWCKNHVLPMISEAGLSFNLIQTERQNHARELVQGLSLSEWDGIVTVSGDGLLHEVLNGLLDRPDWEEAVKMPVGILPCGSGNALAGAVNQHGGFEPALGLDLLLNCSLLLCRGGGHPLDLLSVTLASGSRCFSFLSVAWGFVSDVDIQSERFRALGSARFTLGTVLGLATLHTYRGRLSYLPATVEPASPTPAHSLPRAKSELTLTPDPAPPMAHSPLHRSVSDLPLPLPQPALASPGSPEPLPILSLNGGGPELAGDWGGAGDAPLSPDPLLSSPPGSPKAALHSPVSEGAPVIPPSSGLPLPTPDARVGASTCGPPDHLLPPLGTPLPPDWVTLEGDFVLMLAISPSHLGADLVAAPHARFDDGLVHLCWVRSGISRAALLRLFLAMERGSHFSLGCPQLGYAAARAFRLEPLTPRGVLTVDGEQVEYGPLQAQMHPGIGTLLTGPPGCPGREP

[3] = tested on: prostate cancer (DU145) cells over-expressing acid ceramidase; experiment: BD FALCON FLUOROBLOK migration assay; type: cell-based, human; conditions: 5 μM pretreatment overnight; 16/24 hours incubation; FIG. 8
Experimental: NT represents non-treated cells.
The presently disclosed guanidino-sphingosines were determined to be capable of inhibiting cell migration of cancer cells overexpressing acid ceramidase. The BD™ FALCON™ (Becton Dickinson and Company, Franklin Lakes, N.J., United States of America) migration assay (using FLUOROBLOK™ polyethylene terphthalate (PET) inserts (8.0 μm)) was performed with prostate cancer (DU145) cells over-expressing acid ceramidase. […] After labeling the cells with carboxyfluorescein diacetate succinimidyl ester fluorscent dye (CFMDA), the cells were seeded on the top well of BDTM FLUOROBLOK™ PET membrane collagen-coated inserts. The negative control consisted of serum free media loaded in the bottom well and 10% FCS-enriched media was used as the positive control. After 16/24 hours incubation, the plate was read from the bottom (485/530 nm) and fluorescence was quantified.

IC50 ([1]; read-out: In Vitro IC50 on Sphingosine Kinase 1)	IC50 [2]	IC50 ([1]; read-out: IC50 on SK1)	SMILES	endogenous C16-ceramide levels (MCF7 cells)	migration rate of DU145 cells [3]
420 nM	740 nM		CCCCCCCCCCCCC/C=C/[C@@H](O)[C@H](CO)NC(=N)N [LCL146, D-erythro-2-N-(1′-carboxamidino)-sphingosine hydrochloride]	elevation	
	300 nM	40 nM	CCCCCCCCCCCCC/C=C/[C@H](O)[C@@H](CO)NC(=N)N [LCL351, L-erythro-2-N-(1′-carboxamidino)-sphingosine hydrochloride]	elevation	decreases the migration rate

— patent US20120035268A1, “SPHINGO-GUANIDINES AND THEIR USE AS INHIBITORS OF SPHINGOSINE KINASE” (priority 2008, published 2012)
